For 52 compounds, IC50 results are on record in US9902728B2, “Pyrrolo and pyrazolopyrimidines as ubiquitin-specific protease 7 inhibitors” (Forma Therapeutics, Inc., priority 2014, dated 2018).

T1 sequence (Q93009 208-1102): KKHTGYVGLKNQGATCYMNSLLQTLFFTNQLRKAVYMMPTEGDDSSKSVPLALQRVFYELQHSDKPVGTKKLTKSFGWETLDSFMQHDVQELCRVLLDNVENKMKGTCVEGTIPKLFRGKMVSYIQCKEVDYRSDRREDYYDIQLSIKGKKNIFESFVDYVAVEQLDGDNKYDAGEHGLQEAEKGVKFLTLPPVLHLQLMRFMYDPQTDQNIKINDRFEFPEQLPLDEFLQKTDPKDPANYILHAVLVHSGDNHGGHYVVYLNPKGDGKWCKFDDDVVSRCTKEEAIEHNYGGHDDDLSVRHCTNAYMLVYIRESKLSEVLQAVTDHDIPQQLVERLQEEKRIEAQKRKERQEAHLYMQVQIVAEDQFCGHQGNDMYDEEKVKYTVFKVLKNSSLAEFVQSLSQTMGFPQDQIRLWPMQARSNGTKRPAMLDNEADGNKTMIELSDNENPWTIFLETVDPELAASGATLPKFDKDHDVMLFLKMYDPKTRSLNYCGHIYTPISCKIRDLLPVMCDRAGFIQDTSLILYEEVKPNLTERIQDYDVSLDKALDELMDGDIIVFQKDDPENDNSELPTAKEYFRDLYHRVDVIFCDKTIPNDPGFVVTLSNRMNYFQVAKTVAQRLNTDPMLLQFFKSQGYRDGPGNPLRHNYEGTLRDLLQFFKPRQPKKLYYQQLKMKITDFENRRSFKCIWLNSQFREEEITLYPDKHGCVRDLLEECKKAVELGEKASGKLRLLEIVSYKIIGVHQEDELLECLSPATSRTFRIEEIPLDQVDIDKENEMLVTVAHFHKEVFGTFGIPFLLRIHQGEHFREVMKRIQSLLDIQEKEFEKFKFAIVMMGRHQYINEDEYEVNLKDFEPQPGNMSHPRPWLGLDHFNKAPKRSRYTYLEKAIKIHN

The first experiment has as its target T1, USP7 (Homo sapiens, UniProt Q93009).
T1 construct: USP7, construct USP7 (208-1102) 6*His, Viva Biotech; 6xHis (C); purchased Viva Biotech
Description: USP7 Assay A (Ubitquin-Rhodamine 110 Assay). The class given is biochemical. To be noted: USP7 activity in USP7 assay A and B (table does not say which assay per compound); read-out: USP7_IC50. The method, boiled down: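 Enzyme and compound sat together for 30 min before Ub-Rh110 was added, in buffer of 20 mM Tris-HCl (pH 8.0), 1 mM GSH, 0.03% BGG and 0.01% Triton X-100.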
On to `CN1CCN(c2cnn(-c3ccc(-n4ncc5c(=O)n(CC6(O)CCN(C(=O)C7CC7)CC6)cnc54)cc3)c2)CC1` [Compound I-975, 5-[(1-cyclopropanecarbonyl-4-hydroxypiperidin-4-yl)methyl]-1-{4-[4-(4-methylpiperazin-1-yl)-1H-pyrazol-1-yl]phenyl}-1H,4H,5H-pyrazolo[3,4-d]pyrimidin-4-one], for which the IC50 lay within 0.2 to 1 µM.

On to `O=C(c1ccc(F)cc1)N1CCC(O)(Cn2cnc3c(cnn3-c3ccc(-n4cc5c(n4)CCOC5)cc3)c2=O)CC1` [Compound I-976], for which the IC50 was 1 to 10 µM. Still for that read-out and setting: the value for `O=C(C1CC1)N1CCC(O)(Cn2cnc3c(cnn3-c3ccc(-n4cc(OCCO)cn4)cc3)c2=O)CC1` [Compound I-977] was 1 to 10 µM. With `O=C(c1cnc(C2CC2)o1)N1CCC(O)(Cn2cnc3c(cnn3-c3ccc(OCC4(F)CCC4)cc3)c2=O)CC1` [Compound I-981], the IC50 is less than 0.2 µM.

For `Cc1nc(-c2ccc(-n3ncc4c(=O)n(CC5(O)CCN(C(=O)c6ccc(F)cc6)CC5)cnc43)cc2)c[nH]1` [Compound I-983], the IC50 is 1 to 10 µM. As to `Cc1cnc(-c2ccc(-n3ncc4c(=O)n(CC5(O)CCN(C(=O)c6ccc(F)cc6)CC5)cnc43)cc2)n1C` [Compound I-984], the IC50 was 1 to 10 µM. Turning to `O=C(c1cnc(C2CC2)o1)N1CCC(O)(Cn2cnc3c(cnn3-c3ccc(-c4cccnc4)cc3)c2=O)CC1` [Compound I-985], the IC50 is 0.2 to 1 µM. As to `Cc1cn(-c2ccc(-n3ncc4c(=O)n(CC5(O)CCN(C(=O)c6ccc(F)cc6)CC5)cnc43)cc2)cn1` [Compound I-987], the IC50 lay within 1 to 10 µM. `Cc1nccn1-c1ccc(-n2ncc3c(=O)n(CC4(O)CCN(C(=O)c5ccc(F)cc5)CC4)cnc32)cc1` [Compound I-988]: the IC50 is 1 to 10 µM.

With `CN1Cc2cnn(-c3ccc(C(=O)N4CCC(O)(Cn5cnc6c(cnn6-c6ccc(F)cc6)c5=O)CC4)cc3)c2C1` [Compound I-1000], the IC50 is 1 to 10 µM.

Turning to `CN1Cc2cn(-c3ccc(C(=O)N4CCC(O)(Cn5cnc6c(cnn6-c6ccc(F)cc6)c5=O)CC4)cc3)nc2C1` [Compound I-1001], the IC50 fell in the range of 1 to 10 µM. For the compound `NC(=O)Cn1cc(-c2ccc(C(=O)N3CCC(O)(Cn4cnc5c(cnn5-c5ccc(F)cc5)c4=O)CC3)cc2)cn1` [Compound I-1002, 2-(4-(4-(4-((1-(4-fluorophenyl)-4-oxo-1H-pyrazolo[3,4-d]pyrimidin-5(4H)-yl)methyl)-4-hydroxypiperidine-1-carbonyl)phenyl)-1H-pyrazol-1-yl)acetamide], the IC50 was 1 to 10 µM. Regarding `C=CC(=O)N1[C@@H](C(=O)N2CCC(O)(Cn3cnc4c(cnn4-c4ccc(F)cc4)c3=O)CC2)C[C@@H]1C` [Compound I-1003], the IC50 is 1 to 10 µM. Take `O=C(c1ccc(N2CC3CC2CN3)cc1)N1CCC(O)(Cn2cnc3c(cnn3-c3ccc(F)cc3)c2=O)CC1` (stereo not shown) [Compound I-1005]: the IC50 fell in the range of 1 to 10 µM.

On to `O=C(c1ccc(-c2cnn(CCO)c2)cc1)N1CCC(O)(Cn2cnc3c(cnn3-c3ccc(F)cc3)c2=O)CC1` [Compound I-1006], for which the IC50 is 1 to 10 µM. In the case of `O=C(C1CC1)N1CCC(O)(Cn2cnc3c(ccn3-c3cccc(CN4CCCCC4)c3)c2=O)CC1` [Compound I-1009], the IC50 was 1 to 10 µM. With `O=C(C1CC1)N1CCC(O)(Cn2cnc3c(ccn3-c3ccc(F)c(CN4CCCCC4)c3)c2=O)CC1` [Compound I-1010], the IC50 fell in the range of 1 to 10 µM.

Turning to `N#Cc1ccc(OC2CCC(C(=O)N3CCC(O)(Cn4cnc5c(cnn5-c5ccc(F)cc5)c4=O)CC3)CC2)nc1` (stereo not shown) [Compound I-1014], the IC50 was 0.2 to 1 µM. In the case of `Cc1cncc(OC2CCC(C(=O)N3CCC(O)(Cn4cnc5c(cnn5-c5ccc(F)cc5)c4=O)CC3)CC2)n1` (stereo not shown) [Compound I-1015], the IC50 lay within 0.2 to 1 µM. Consider `Cc1nccc(OC2CCC(C(=O)N3CCC(O)(Cn4cnc5c(cnn5-c5ccc(F)cc5)c4=O)CC3)CC2)n1` (stereo not shown) [Compound I-1016], for which the IC50 fell in the range of 0.2 to 1 µM.

With `O=C(C1CCC(Oc2cccnc2F)CC1)N1CCC(O)(Cn2cnc3c(cnn3-c3ccccc3)c2=O)CC1` (stereo not shown) [Compound I-1017], the IC50 was 0.2 to 1 µM. Consider `O=C(C1CCC(Oc2cccc(N3CCC3)n2)CC1)N1CCC(O)(Cn2cnc3c(cnn3-c3ccc(F)cc3)c2=O)CC1` (stereo not shown) [Compound I-1018], for which the IC50 is less than 0.2 µM. Still for that read-out and setting: the value for `COc1ccc(OC2CCC(C(=O)N3CCC(O)(Cn4cnc5c(cnn5-c5ccc(F)cc5)c4=O)CC3)CC2)nc1` (stereo not shown) [Compound I-1019] was 0.2 to 1 µM; that for `COc1ccc(OC2CCC(C(=O)N3CCC(O)(Cn4cnc5c(cnn5-c5ccccc5)c4=O)CC3)CC2)nc1` (stereo not shown) [Compound I-1020] was 0.2 to 1 µM; that for `O=C(C1CCC(Oc2cnccn2)CC1)N1CCC(O)(Cn2cnc3c(cnn3-c3ccc(F)cc3)c2=O)CC1` (stereo not shown) [Compound I-1021] was 0.2 to 1 µM. The same measure, in the same setting: the value for `Cc1ncc(OC2CCC(C(=O)N3CCC(O)(Cn4cnc5c(cnn5-c5ccc(F)cc5)c4=O)CC3)CC2)cn1` (stereo not shown) [Compound I-1022] was 0.2 to 1 µM.

In the case of `O=C(C1CCC(Nc2cccc(F)n2)CC1)N1CCC(O)(Cn2cnc3c(cnn3-c3ccc(F)cc3)c2=O)CC1` (stereo not shown) [Compound I-1023], the IC50 was less than 0.2 µM.

Consider `O=C(C1CCC(Nc2cccc(F)n2)CC1)N1CCC(O)(Cn2cnc3c(cnn3-c3ccc(F)cc3)c2=O)CC1` (stereo not shown) [Compound I-1024], for which the IC50 is less than 0.2 µM. Take `CC(c1ccccc1)c1nn(C)cc1C(=O)N1CCC(O)(Cn2cnc3c(cnn3-c3ccc(F)cc3)c2=O)CC1` (stereo not shown) [Compound I-1025]: the IC50 fell in the range of 0.2 to 1 µM. For the compound `C[C@H](CC(=O)N1CCC(O)(Cn2cnc3c(cnn3-c3ccc(F)cc3)c2=O)CC1)n1ccc(F)n1` [Compound I-1028], the IC50 was less than 0.2 µM. As for `C[C@@H](CC(=O)N1CCC(O)(Cn2cnc3c(cnn3-c3ccc(F)cc3)c2=O)CC1)n1ccc(F)n1` [Compound I-1029], the IC50 fell in the range of 1 to 10 µM.

On to `O=C(C1CC(Nc2cccnc2)C1)N1CCC(O)(Cn2cnc3c(cnn3-c3ccc(F)cc3)c2=O)CC1` (stereo not shown) [Compound I-1030], for which the IC50 is 0.2 to 1 µM. With `O=C(C1CC(Nc2cccnc2)C1)N1CCC(O)(Cn2cnc3c(cnn3-c3ccc(F)cc3)c2=O)CC1` (stereo not shown) [Compound I-1031], the IC50 was 0.2 to 1 µM. On to `O=C(C1CC(Nc2ccc(F)cn2)C1)N1CCC(O)(Cn2cnc3c(cnn3-c3ccc(F)cc3)c2=O)CC1` (stereo not shown) [Compound I-1032], for which the IC50 was in the range of 0.2 to 1 µM. Consider `O=C(C1CC(Nc2ccc(F)cn2)C1)N1CCC(O)(Cn2cnc3c(cnn3-c3ccc(F)cc3)c2=O)CC1` (stereo not shown) [Compound I-1033], for which the IC50 was 1 to 10 µM. Consider `O=C(C1CC(Nc2ccccn2)C1)N1CCC(O)(Cn2cnc3c(cnn3-c3ccc(F)cc3)c2=O)CC1` (stereo not shown) [Compound I-1034], for which the IC50 was in the range of 1 to 10 µM. In the case of `O=C(C1CC(Nc2ccccn2)C1)N1CCC(O)(Cn2cnc3c(cnn3-c3ccc(F)cc3)c2=O)CC1` (stereo not shown) [Compound I-1035], the IC50 lay within 0.2 to 1 µM. For the compound `O=C(C[C@H](C(F)F)n1ccc(F)n1)N1CCC(O)(Cn2cnc3c(cnn3-c3ccc(C(F)(F)F)cc3)c2=O)CC1` [Compound I-1036], the IC50 was less than 0.2 µM. `O=C(C[C@@H](C(F)F)n1ccc(F)n1)N1CCC(O)(Cn2cnc3c(cnn3-c3ccc(C(F)(F)F)cc3)c2=O)CC1` [Compound I-1037]: the IC50 was in the range of 1 to 10 µM.

In the case of `O=C(C1CCC(Oc2ccccn2)CC1)N1CCC(O)(Cn2cnc3c(ccn3-c3ccc(F)cc3)c2=O)CC1` (stereo not shown) [Compound I-1038], the IC50 was less than 0.2 µM. In the case of `O=c1c2cnn(-c3ccccc3)c2ncn1CC1(O)CCN(C(=O)[C@H]2CC[C@H](Nc3cccnc3F)CC2)CC1` [Compound I-1039b, Anti-5-((1-(4-((2-fluoropyridin-3-yl)amino)cyclohexane-1-carbonyl)-4-hydroxypiperidin-4-yl)methyl)-1-phenyl-1,5-dihydro-4H-pyrazolo[3,4-d]pyrimidin-4-one], the IC50 was less than 0.2 µM.

On to `Cn1ccc(NC2CCC(C(=O)N3CCC(O)(Cn4cnc5c(ccn5-c5ccc(F)cc5)c4=O)CC3)CC2)n1` (stereo not shown) [Compound I-1040], for which the IC50 lay in the range of 1 to 10 µM. Take `Cn1ccc(NC2CCC(C(=O)N3CCC(O)(Cn4cnc5c(ccn5-c5ccc(F)cc5)c4=O)CC3)CC2)n1` (stereo not shown) [Compound I-1041]: the IC50 lay within 0.2 to 1 µM. The same measure, in the same setting: for `CC1(C(=O)N2CCC(O)(Cn3cnc4c(cnn4-c4cccc(-n5ccc(F)n5)c4)c3=O)CC2)CC1` [Compound I-1042] the value was 0.2 to 1 µM; for `CC1(C(=O)N2CCC(O)(Cn3cnc4c(cnn4-c4ccc(-n5cc(C(F)(F)F)cn5)cc4)c3=O)CC2)CC1` [Compound I-1043], 0.2 to 1 µM; for `CC1(C(=O)N2CCC(O)(Cn3cnc4c(cnn4-c4ccc(-n5cc(Cl)cn5)cc4)c3=O)CC2)CC1` [Compound I-1045], less than 0.2 µM.

On to `CC1(C(=O)N2CCC(O)(Cn3cnc4c(cnn4-c4cccc(OCC5CC(F)(F)C5)c4)c3=O)CC2)CC1` [Compound I-1046, 1-(3-((3,3-difluorocyclobutyl)methoxy)phenyl)-5-((4-hydroxy-1-(1-methylcyclopropane-1-carbonyl)piperidin-4-yl)methyl)-1,5-dihydro-4H-pyrazolo[3,4-d]pyrimidin-4-one], for which the IC50 is 0.2 to 1 µM.

Staying with this experiment, now noted: USP7 assay A and B (table does not say which assay per compound); read-out: USP7_IC50.
With `CN(C)C(=O)N1CCC(O)(Cn2cnc3c(cnn3-c3cccc(N4C[C@@H](O)[C@H](F)C4)c3)c2=O)CC1` [Compound I-974], the IC50 is 1 to 10 µM. For `O=C(c1ccc(OC(F)F)cc1)N1CCC(O)(Cn2cnc3c(cnn3-c3cccc(CO)c3)c2=O)CC1` [Compound I-989], the IC50 is 1 to 10 µM. Regarding `CC(C)N1CCC(c2ccc(-n3ncc4c(=O)n(CC5(O)CCN(C(=O)N(C)C)CC5)cnc43)cc2)CC1` [Compound I-992], the IC50 is 1 to 10 µM.

As to `O=C(c1ccc(F)cc1)N1CCC(O)(Cn2cnc3c(cnn3-c3cccc(C4CCNCC4)c3)c2=O)CC1` [Compound I-993], the IC50 is 1 to 10 µM. Regarding `CN1CCCCC1CCc1ccc(-n2ncc3c(=O)n(CC4(O)CCN(C(=O)c5ccc(F)cc5)CC4)cnc32)cc1` (stereo not shown) [Compound I-1007, 5-((1-(4-fluorobenzoyl)-4-hydroxypiperidin-4-yl)methyl)-1-(4-(2-(1-methylpiperidin-2-yl)ethyl)phenyl)-1H-pyrazolo[3,4-d]pyrimidin-4(5H)-one], the IC50 is 1 to 10 µM.
